Assays:
[1] = system: Chinese sprangletop; assay: Test Example 3: herbicidal effect by foliage application, Wagner pot (Table 18, symbol D); type: in vivo, chinese sprangletop (Leptochloa chinensis); details: amount of applied herbicide 320 g/ha
Procedure, shortened: (§1)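 Plants were sown in alluvial soil held under 0.1–0.5 cm standing water and grown 14 days in a greenhouse at 25–30 °C. An emulsifiable formulation, water-diluted to the set dose, was then sprayed onto the foliage, and effects were scored three weeks later using previously defined criteria.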

[2] = system: velvetleaf; assay: Test Example 4: herbicidal effect by soil treatment (Table 19, symbol M); type: in vivo, velvetleaf (Abutilon theophrasti); details: amount of applied herbicide 320 g/ha
Procedure, shortened: (§2)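 Pre-emergence style soil spray: seeds under ~1.5 cm sterilized diluvial soil received a uniform coat of emulsion diluted to the predetermined herbicide amount. Greenhouse 25–30° C; readout at week three on previously defined criteria.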

[3] = system: lambsquarters; assay: Test Example 4: herbicidal effect by soil treatment (Table 19, symbol O); type: in vivo, lambsquarters (Chenopodium album); details: amount of applied herbicide 320 g/ha
Procedure, shortened: as §2

[4] = system: Japanese bulrush; assay: Test Example 1: herbicidal activity, application before weed generation under submerged conditions (Table 16, symbol B); type: in vivo, Japanese bulrush (Schoenoplectus juncoides); details: 320 g/ha applied herbicide
Procedure, shortened: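 Submerged Wagner pots (alluvial soil, 4 cm water) sown with weed seeds and planted with 2.5-leaf rice seedlings; emulsifiable concentrate diluted in water applied to water surface on sowing day. Held in greenhouse at 25-30 °C; injury scored 0-5 by herbicidal rate after three weeks.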

[5] = system: windgrass; assay: Test Example 5: herbicidal effect by foliage application, plastic box (Table 20, symbol L); type: in vivo, windgrass (Apera spica-venti); details: foliage application, 320 g/ha, evaluated three weeks after application
Procedure, shortened: (§3)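 Plants were sown into sterilized diluvial soil under about 1.5 cm cover and kept in a greenhouse at 25° C. to 30° C. Fourteen days on, foliage received an even spray of the diluted emulsion. Herbicidal or crop effect was judged three weeks afterwards.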

[6] = system: late watergrass; assay: Test Example 2: herbicidal activity, application during weed generation under submerged conditions (Table 17, symbol A); type: in vivo, late watergrass (Echinochloa oryzicola); details: AAH 320 g/ha; application during weed generation, submerged conditions
Procedure, shortened: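 Steps: fill Wagner pots with alluvial soil; add water to give 4 cm depth; sow the species mixed; grow under glass at 25–30° C.; at 1–2 leaves apply water-diluted emulsion formulation to the water surface at a fixed herbicide amount; score after 3 weeks.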

[7] = system: barnyard grass; assay: Test Example 3: herbicidal effect by foliage application, Wagner pot (Table 18, symbol H); type: in vivo, barnyard grass (Echinochloa crus-galli); details: amount of applied herbicide 320 g/ha
Procedure, shortened: as §1

[8] = system: wild oat; assay: Test Example 5: herbicidal effect by foliage application, plastic box (Table 20, symbol I); type: in vivo, wild oat (Avena fatua); details: foliage application, 320 g/ha, evaluated three weeks after application
Procedure, shortened: as §3

[9] = system: blackgrass; assay: Test Example 5: herbicidal effect by foliage application, plastic box (Table 20, symbol J); type: in vivo, blackgrass (Alopecurus myosuroides); details: foliage application, 320 g/ha, evaluated three weeks after application
Procedure, shortened: as §3

[10] = system: blackgrass; assay: Test Example 4: herbicidal effect by soil treatment (Table 19, symbol J); type: in vivo, blackgrass (Alopecurus myosuroides); details: amount of applied herbicide 320 g/ha
Procedure, shortened: as §2

[11] = system: barnyard grass; assay: Test Example 4: herbicidal effect by soil treatment (Table 19, symbol H); type: in vivo, barnyard grass (Echinochloa crus-galli); details: amount of applied herbicide 320 g/ha
Procedure, shortened: as §2

[12] = system: Italian ryegrass; assay: Test Example 5: herbicidal effect by foliage application, plastic box (Table 20, symbol K); type: in vivo, Italian ryegrass (Lolium multiflorum); details: foliage application, 320 g/ha, evaluated three weeks after application
Procedure, shortened: as §3

[13] = system: green foxtail; assay: Test Example 4: herbicidal effect by soil treatment (Table 19, symbol G); type: in vivo, green foxtail (Setaria viridis); details: amount of applied herbicide 320 g/ha
Procedure, shortened: as §2

[14] = system: southern crabgrass; assay: Test Example 4: herbicidal effect by soil treatment (Table 19, symbol F); type: in vivo, southern crabgrass (Digitaria ciliaris); details: amount of applied herbicide 320 g/ha
Procedure, shortened: as §2

[15] = system: lambsquarters; assay: Test Example 5: herbicidal effect by foliage application, plastic box (Table 20, symbol O); type: in vivo, lambsquarters (Chenopodium album); details: foliage application, 320 g/ha, evaluated three weeks after application
Procedure, shortened: as §3

[16] = system: redroot pigweed; assay: Test Example 4: herbicidal effect by soil treatment (Table 19, symbol N); type: in vivo, redroot pigweed (Amaranthus retroflexus); details: amount of applied herbicide 320 g/ha
Procedure, shortened: as §2

[17] = system: chickweed; assay: Test Example 4: herbicidal effect by soil treatment (Table 19, symbol P); type: in vivo, common chickweed (Stellaria media); details: amount of applied herbicide 320 g/ha
Procedure, shortened: as §2

## CCCC(=O)Oc1c(C)nn(C)c(=O)c1-c1c(-c2ccc(OC3CC3)cc2)sc2ccc(F)cc12 [2-218]
[1]
  herbicidal effect on D: Chinese sprangletop: 3 (Herbicidal rate of 40% or more and less than 70%)
[2]
  M: velvetleaf, herbicidal effect rating: 0 (Herbicidal rate of 5% or less (almost no effect))
[3]
  O: lambsquarters, herbicidal effect rating: 4 (Herbicidal rate of 70% or more and less than 90%)
[4]
  Herbicidal effect on B: Japanese bulrush (grade 0-5): 5 (Herbicidal rate of 90% or more (almost completely withered))
[5]
  herbicidal effect on L: windgrass (criteria 0-5): 5 (Herbicidal rate of 90% or more (almost completely withered))
[6]
  herbicidal effect rating, A: late watergrass: 1 (Herbicidal rate of 5% or more and less than 20%)
[7]
  herbicidal effect on H: barnyard grass: 5 (Herbicidal rate of 90% or more (almost completely withered))
[8]
  herbicidal effect on I: wild oat (criteria 0-5): 3 (Herbicidal rate of 40% or more and less than 70%)
[9]
  herbicidal effect on J: blackgrass (criteria 0-5): 1 (Herbicidal rate of 5% or more and less than 20%)
[10]
  J: blackgrass, herbicidal effect rating: 0 (Herbicidal rate of 5% or less (almost no effect))
[11]
  H: barnyard grass, herbicidal effect rating: 0 (Herbicidal rate of 5% or less (almost no effect))
[12]
  herbicidal effect on K: Italian ryegrass (criteria 0-5): 4 (Herbicidal rate of 70% or more and less than 90%)
[13]
  G: green foxtail, herbicidal effect rating: 0 (Herbicidal rate of 5% or less (almost no effect))
[14]
  F: southern crabgrass, herbicidal effect rating: 0 (Herbicidal rate of 5% or less (almost no effect))
[15]
  herbicidal effect on O: lambsquarters (criteria 0-5): 5 (Herbicidal rate of 90% or more (almost completely withered))
[16]
  N: redroot pigweed, herbicidal effect rating: 1 (Herbicidal rate of 5% or more and less than 20%)
[17]
  P: chickweed, herbicidal effect rating: 1 (Herbicidal rate of 5% or more and less than 20%)

## CCCC(=O)Oc1c(C)nn(C)c(=O)c1-c1c(-c2cccc(OCC(C)C)c2)sc2ccc(F)cc12 [2-222]
[1]
  herbicidal effect on D: Chinese sprangletop: 5 (Herbicidal rate of 90% or more (almost completely withered))
[2]
  herbicidal effect on M: velvetleaf: 3 (Herbicidal rate of 40% or more and less than 70%)
[3]
  herbicidal effect on O: lambsquarters: 4 (Herbicidal rate of 70% or more and less than 90%)
[4]
  Herbicidal effect on B: Japanese bulrush (grade 0-5): 4 (Herbicidal rate of 70% or more and less than 90%)
[5]
  herbicidal effect on L: windgrass (criteria 0-5): 4 (Herbicidal rate of 70% or more and less than 90%)
[6]
  herbicidal effect rating, A: late watergrass: 2 (Herbicidal rate of 20% or more and less than 40%)
[7]
  herbicidal effect on H: barnyard grass: 5 (Herbicidal rate of 90% or more (almost completely withered))
[8]
  herbicidal effect on I: wild oat (criteria 0-5): 3 (Herbicidal rate of 40% or more and less than 70%)
[9]
  herbicidal effect on J: blackgrass (criteria 0-5): 4 (Herbicidal rate of 70% or more and less than 90%)
[10]
  herbicidal effect on J: blackgrass: 4 (Herbicidal rate of 70% or more and less than 90%)
[11]
  herbicidal effect on H: barnyard grass: 5 (Herbicidal rate of 90% or more (almost completely withered))
[12]
  herbicidal effect on K: Italian ryegrass (criteria 0-5): 4 (Herbicidal rate of 70% or more and less than 90%)
[13]
  herbicidal effect on G: green foxtail: 2 (Herbicidal rate of 20% or more and less than 40%)
[14]
  herbicidal effect on F: southern crabgrass: 1 (Herbicidal rate of 5% or more and less than 20%)
[15]
  herbicidal effect on O: lambsquarters (criteria 0-5): 5 (Herbicidal rate of 90% or more (almost completely withered))
[16]
  herbicidal effect on N: redroot pigweed: 5 (Herbicidal rate of 90% or more (almost completely withered))
[17]
  herbicidal effect on P: chickweed: 2 (Herbicidal rate of 20% or more and less than 40%)

## CCCCCOc1cccc(-c2sc3ccc(F)cc3c2-c2c(O)c(C)nn(C)c2=O)c1 [2-225]
[1]
  herbicidal effect on D: Chinese sprangletop: 3 (Herbicidal rate of 40% or more and less than 70%)
[2]
  herbicidal effect on M: velvetleaf: 0 (Herbicidal rate of 5% or less (almost no effect))
[3]
  herbicidal effect on O: lambsquarters: 3 (Herbicidal rate of 40% or more and less than 70%)
[4]
  Herbicidal effect on B: Japanese bulrush (grade 0-5): 3 (Herbicidal rate of 40% or more and less than 70%)
[5]
  herbicidal effect on L: windgrass (criteria 0-5): 4 (Herbicidal rate of 70% or more and less than 90%)
[6]
  herbicidal effect rating, A: late watergrass: 3 (Herbicidal rate of 40% or more and less than 70%)
[7]
  herbicidal effect on H: barnyard grass: 4 (Herbicidal rate of 70% or more and less than 90%)
[8]
  herbicidal effect on I: wild oat (criteria 0-5): 0 (Herbicidal rate of 5% or less (almost no effect))
[9]
  herbicidal effect on J: blackgrass (criteria 0-5): 0 (Herbicidal rate of 5% or less (almost no effect))
[10]
  herbicidal effect on J: blackgrass: 0 (Herbicidal rate of 5% or less (almost no effect))
[11]
  herbicidal effect on H: barnyard grass: 0 (Herbicidal rate of 5% or less (almost no effect))
[12]
  herbicidal effect on K: Italian ryegrass (criteria 0-5): 0 (Herbicidal rate of 5% or less (almost no effect))
[13]
  herbicidal effect on G: green foxtail: 0 (Herbicidal rate of 5% or less (almost no effect))
[14]
  herbicidal effect on F: southern crabgrass: 0 (Herbicidal rate of 5% or less (almost no effect))
[15]
  herbicidal effect on O: lambsquarters (criteria 0-5): 4 (Herbicidal rate of 70% or more and less than 90%)
[16]
  herbicidal effect on N: redroot pigweed: 5 (Herbicidal rate of 90% or more (almost completely withered))
[17]
  herbicidal effect on P: chickweed: 0 (Herbicidal rate of 5% or less (almost no effect))

## Cc1nn(C)c(=O)c(-c2c(-c3ccc(C(F)F)cc3)sc3ccc(F)cc23)c1O [2-227]
[1]
  herbicidal effect on D: Chinese sprangletop: 3 (Herbicidal rate of 40% or more and less than 70%)
[2]
  herbicidal effect on M: velvetleaf: 5 (Herbicidal rate of 90% or more (almost completely withered))
[3]
  herbicidal effect on O: lambsquarters: 5 (Herbicidal rate of 90% or more (almost completely withered))
[4]
  Herbicidal effect on B: Japanese bulrush (grade 0-5): 0 (Herbicidal rate of 5% or less (almost no effect))
[5]
  herbicidal effect on L: windgrass (criteria 0-5): 0 (Herbicidal rate of 5% or less (almost no effect))
[6]
  herbicidal effect rating, A: late watergrass: 0 (Herbicidal rate of 5% or less (almost no effect))
[7]
  herbicidal effect on H: barnyard grass: 5 (Herbicidal rate of 90% or more (almost completely withered))
[8]
  herbicidal effect on I: wild oat (criteria 0-5): 0 (Herbicidal rate of 5% or less (almost no effect))
[9]
  herbicidal effect on J: blackgrass (criteria 0-5): 3 (Herbicidal rate of 40% or more and less than 70%)
[10]
  herbicidal effect on J: blackgrass: 1 (Herbicidal rate of 5% or more and less than 20%)
[11]
  herbicidal effect on H: barnyard grass: 5 (Herbicidal rate of 90% or more (almost completely withered))
[12]
  herbicidal effect on K: Italian ryegrass (criteria 0-5): 4 (Herbicidal rate of 70% or more and less than 90%)
[13]
  herbicidal effect on G: green foxtail: 4 (Herbicidal rate of 70% or more and less than 90%)
[14]
  herbicidal effect on F: southern crabgrass: 5 (Herbicidal rate of 90% or more (almost completely withered))
[15]
  herbicidal effect on O: lambsquarters (criteria 0-5): 5 (Herbicidal rate of 90% or more (almost completely withered))
[16]
  herbicidal effect on N: redroot pigweed: 5 (Herbicidal rate of 90% or more (almost completely withered))
[17]
  herbicidal effect on P: chickweed: 5 (Herbicidal rate of 90% or more (almost completely withered))

## CCCSc1ccc(-c2sc3ccc(F)cc3c2-c2c(OC(=O)CCC)c(C)nn(C)c2=O)cc1 [2-249]
[1]
  herbicidal effect on D: Chinese sprangletop: 3 (Herbicidal rate of 40% or more and less than 70%)
[2]
  herbicidal effect on M: velvetleaf: 1 (Herbicidal rate of 5% or more and less than 20%)
[3]
  herbicidal effect on O: lambsquarters: 3 (Herbicidal rate of 40% or more and less than 70%)
[4]
  Herbicidal effect on B: Japanese bulrush (grade 0-5): 2 (Herbicidal rate of 20% or more and less than 40%)
[5]
  herbicidal effect on L: windgrass (criteria 0-5): 4 (Herbicidal rate of 70% or more and less than 90%)
[6]
  herbicidal effect rating, A: late watergrass: 4 (Herbicidal rate of 70% or more and less than 90%)
[7]
  herbicidal effect on H: barnyard grass: 5 (Herbicidal rate of 90% or more (almost completely withered))
[8]
  herbicidal effect on I: wild oat (criteria 0-5): 4 (Herbicidal rate of 70% or more and less than 90%)
[9]
  herbicidal effect on J: blackgrass (criteria 0-5): 4 (Herbicidal rate of 70% or more and less than 90%)
[10]
  herbicidal effect on J: blackgrass: 0 (Herbicidal rate of 5% or less (almost no effect))
[11]
  herbicidal effect on H: barnyard grass: 4 (Herbicidal rate of 70% or more and less than 90%)
[12]
  herbicidal effect on K: Italian ryegrass (criteria 0-5): 3 (Herbicidal rate of 40% or more and less than 70%)
[13]
  herbicidal effect on G: green foxtail: 4 (Herbicidal rate of 70% or more and less than 90%)
[14]
  herbicidal effect on F: southern crabgrass: 3 (Herbicidal rate of 40% or more and less than 70%)
[15]
  herbicidal effect on O: lambsquarters (criteria 0-5): 4 (Herbicidal rate of 70% or more and less than 90%)
[16]
  herbicidal effect on N: redroot pigweed: 5 (Herbicidal rate of 90% or more (almost completely withered))
[17]
  herbicidal effect on P: chickweed: 0 (Herbicidal rate of 5% or less (almost no effect))

From patent US20230085307A1, “PYRIDAZINONE COMPOUND AND HERBICIDE” (NISSAN CHEMICAL CORPORATION, priority 2019, published 2023)
